Data reported in patent US10479795B2 (Incyte Corporation, priority 2016, dated 2019).
Where a name gives a salt, the structure may show the parent alone. Read-outs that look alike come from different tables or passages of the source.

What was measured:
[1] = tested on: Phosphorylated Ribosomal Protein S6 (RPS6); assay: THP-1 RPS6 ELISA Assay; type: cell-based, Human; conditions: THP-1 cells, read-out: PI3Kγ_THP1_RPS6_ELISA IC50
Description: To measure the Phosphorylated Ribosomal Protein S6 (RPS6) in cell lysates, THP-1 cells (Human Acute Monocytic Leukemia) are purchased from ATCC (Manassas, Va.) and maintained in RPMI with 10% FBS (Gibco/Life Technologies, Carlsbad, Calif.). For the assay, THP-1 cells are serum starved overnight in RPMI, then plated in RPMI (2×10^5 cells/well in 90 μL) into 96-well flat-bottom tissue culture treated plates (Corning, Corning, N.Y.), in the presence or absence of a concentration range of test compounds. Covered plates are incubated for 2 hours at 37° C., 5% CO2 then treated with or without 10 nM MCP-1 (MYBioSource, San Diego, Calif.) for 15 minutes at 37° C., 5% CO2. Plates are centrifuged at 1600 RPM and supernatants are removed. Cells are lysed in Lysis Buffer (Cell Signaling, Danvers, Mass.) with Protease Inhibitor (Calbiochem/EMD, Germany), PMSF (Sigma, St Louis Mo.), HALTS (Thermo Fisher, Rockford, Ill.) for 30 min on wet ice. Cell lysates are frozen at −80° C. before testing. The lysates are tested in the Human/Mouse/Rat Phospho-RPS6 ELISA (R&D Systems, Inc. Minn, Minn.). The plate is measured using a microplate reader (SpectraMax M5 —Molecular Devices, LLC Sunnyvale, Calif.) set to 450 nm with a wavelength correction of 540. IC50 determination is performed by fitting the curve of inhibitor percent inhibition versus the log of the inhibitor concentration using the GraphPad Prism 5.0 software.

[2] = target: PI3Kγ (p110γ) Recombinant Human Protein (Homo sapiens (Human), UniProt P48736); assay: PI3K-γ Scintillation Proximity Assay; type: biochemical; conditions: read-out: PI3Kγ IC50
In short: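 Radiometric SPA readout: […] bound to WGA beads after overnight shaking, IC50 derived from % activity of DMSO control. Reaction used human p110γ, 2 μM ATP, 20 μM PIP2, pH 6.7 MOPS buffer with MgCl2, DTT, CHAPS, 2% DMSO, room temperature.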

[3] = target: PI3Kδ (p110δ/p85α) Recombinant Human Protein (Homo sapiens (Human), UniProt O00329); assay: PI3Kδ Scintillation Proximity Assay; type: biochemical
In short: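 Assay conditions: 2 μM ATP (radiolabelled), 20 μM PIP2, 3.4 nM PI3Kδ, 20 mM MOPS pH 6.7 with 10 mM MgCl2, 5 mM DTT, 0.03% CHAPS, 2 h at room temperature. Signal from bead-captured 33P product; IC50 versus solvent control.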

Sequence of PI3Kδ (p110δ/p85α) Recombinant Human Protein (O00329 whole entry): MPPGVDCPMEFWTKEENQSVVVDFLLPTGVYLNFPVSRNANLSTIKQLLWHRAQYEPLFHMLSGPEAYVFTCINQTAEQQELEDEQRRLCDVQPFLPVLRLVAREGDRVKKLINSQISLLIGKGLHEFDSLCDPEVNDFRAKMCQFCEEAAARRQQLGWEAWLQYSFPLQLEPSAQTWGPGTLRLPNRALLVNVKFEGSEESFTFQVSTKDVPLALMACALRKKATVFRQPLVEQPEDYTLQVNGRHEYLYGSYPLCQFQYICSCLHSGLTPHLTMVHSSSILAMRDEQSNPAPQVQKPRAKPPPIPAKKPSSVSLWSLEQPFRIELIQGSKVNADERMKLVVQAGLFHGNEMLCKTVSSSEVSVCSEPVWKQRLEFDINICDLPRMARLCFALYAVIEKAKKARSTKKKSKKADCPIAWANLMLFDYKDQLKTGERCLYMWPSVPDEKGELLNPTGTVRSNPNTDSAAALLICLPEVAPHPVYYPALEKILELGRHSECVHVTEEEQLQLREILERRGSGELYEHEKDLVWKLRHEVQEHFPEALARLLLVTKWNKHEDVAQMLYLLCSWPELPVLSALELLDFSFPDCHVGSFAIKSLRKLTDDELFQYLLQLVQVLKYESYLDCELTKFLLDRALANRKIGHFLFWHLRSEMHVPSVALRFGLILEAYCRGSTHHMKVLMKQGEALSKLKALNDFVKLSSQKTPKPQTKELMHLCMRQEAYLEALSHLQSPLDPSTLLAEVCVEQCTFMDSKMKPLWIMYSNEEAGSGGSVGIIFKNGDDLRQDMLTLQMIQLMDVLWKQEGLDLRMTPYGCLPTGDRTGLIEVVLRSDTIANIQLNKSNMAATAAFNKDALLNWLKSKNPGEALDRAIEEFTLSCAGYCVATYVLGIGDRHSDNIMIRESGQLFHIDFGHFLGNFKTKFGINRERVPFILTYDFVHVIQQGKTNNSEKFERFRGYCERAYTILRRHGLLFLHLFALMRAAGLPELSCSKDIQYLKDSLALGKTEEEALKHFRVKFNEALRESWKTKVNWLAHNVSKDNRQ
Sequence of PI3Kδ (p110δ/p85α) Recombinant Human Protein (P27986 whole entry partner): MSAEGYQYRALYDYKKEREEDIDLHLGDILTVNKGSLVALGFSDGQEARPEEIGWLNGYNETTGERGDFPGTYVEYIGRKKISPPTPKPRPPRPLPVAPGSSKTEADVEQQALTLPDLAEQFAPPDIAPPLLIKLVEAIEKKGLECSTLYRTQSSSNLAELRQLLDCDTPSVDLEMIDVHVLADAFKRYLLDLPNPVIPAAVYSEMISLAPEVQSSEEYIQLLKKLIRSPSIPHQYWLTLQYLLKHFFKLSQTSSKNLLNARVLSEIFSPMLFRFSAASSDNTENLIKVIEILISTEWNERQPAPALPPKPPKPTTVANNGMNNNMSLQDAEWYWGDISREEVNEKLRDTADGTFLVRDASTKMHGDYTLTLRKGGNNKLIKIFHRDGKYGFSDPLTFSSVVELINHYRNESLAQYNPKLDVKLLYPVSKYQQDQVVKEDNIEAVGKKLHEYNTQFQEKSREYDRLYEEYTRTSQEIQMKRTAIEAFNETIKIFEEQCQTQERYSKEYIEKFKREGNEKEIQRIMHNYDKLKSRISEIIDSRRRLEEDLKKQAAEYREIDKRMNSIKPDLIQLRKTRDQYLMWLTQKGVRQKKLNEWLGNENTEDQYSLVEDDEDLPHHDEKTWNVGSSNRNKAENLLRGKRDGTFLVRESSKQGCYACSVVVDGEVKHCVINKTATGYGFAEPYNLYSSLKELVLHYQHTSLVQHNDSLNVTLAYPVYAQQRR
Sequence of PI3Kγ (p110γ) Recombinant Human Protein (P48736 whole entry): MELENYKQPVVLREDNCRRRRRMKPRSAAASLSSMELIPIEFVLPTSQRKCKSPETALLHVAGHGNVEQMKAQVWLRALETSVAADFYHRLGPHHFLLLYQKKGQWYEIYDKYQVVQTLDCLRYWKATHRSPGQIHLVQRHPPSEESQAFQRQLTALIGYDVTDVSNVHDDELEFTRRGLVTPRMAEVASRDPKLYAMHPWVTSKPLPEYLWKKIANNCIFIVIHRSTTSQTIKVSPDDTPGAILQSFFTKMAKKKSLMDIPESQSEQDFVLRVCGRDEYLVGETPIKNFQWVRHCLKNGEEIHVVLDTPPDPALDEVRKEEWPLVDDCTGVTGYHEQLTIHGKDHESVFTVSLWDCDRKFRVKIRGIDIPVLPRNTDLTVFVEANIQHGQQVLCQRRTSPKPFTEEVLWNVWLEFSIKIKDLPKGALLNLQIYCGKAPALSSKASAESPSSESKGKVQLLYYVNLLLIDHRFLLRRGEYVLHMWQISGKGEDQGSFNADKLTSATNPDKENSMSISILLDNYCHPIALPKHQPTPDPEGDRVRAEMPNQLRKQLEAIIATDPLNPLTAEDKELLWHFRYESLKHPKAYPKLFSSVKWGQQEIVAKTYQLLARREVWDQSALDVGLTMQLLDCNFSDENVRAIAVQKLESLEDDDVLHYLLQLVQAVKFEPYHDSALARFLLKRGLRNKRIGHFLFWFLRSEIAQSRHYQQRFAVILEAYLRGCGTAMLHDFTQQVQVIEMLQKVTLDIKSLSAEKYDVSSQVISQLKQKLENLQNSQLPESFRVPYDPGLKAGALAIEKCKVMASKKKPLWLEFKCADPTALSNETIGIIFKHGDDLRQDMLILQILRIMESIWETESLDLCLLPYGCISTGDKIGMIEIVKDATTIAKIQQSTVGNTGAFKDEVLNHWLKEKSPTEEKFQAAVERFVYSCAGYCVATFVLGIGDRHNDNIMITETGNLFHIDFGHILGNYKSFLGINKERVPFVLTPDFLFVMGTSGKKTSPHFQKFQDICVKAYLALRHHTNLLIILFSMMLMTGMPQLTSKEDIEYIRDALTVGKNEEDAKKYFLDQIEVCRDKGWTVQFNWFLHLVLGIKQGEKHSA

Compound	IC50 [1] [nM]	IC50 [2] [nM]	IC50 [3] [nM]	IC50 ([1]; Homo sapiens) [nM]
3-(4-Amino-2-(trifluoromethyl)imidazo[2,1- f][1,2,4]triazin-7-yl)-N-(3- (hydroxymethyl)bicyclo[2.1.1]pentan-1-yl)-4-(methyl- d3)benzenesulfonamide trifluoroacetate salt [Example 420]	100 to 500	< 100	100 to 500	–
3-[8-Amino-6-(2-fluoro-6-methoxyphenyl)imidazo[1,2-a]pyrazin-3-yl]-N-(trans-4-hydroxycyclohexyl)-4-methylbenzenesulfonamide [Example 34]	100 to 500	< 100	100 to 500	–
3-{8-Amino-6-[3-(methylsulfonyl)phenyl]imidazo[1,2-a]pyrazin-3-yl}-N-(trans-4-hydroxycyclohexyl)-4-methylbenzenesulfonamide [Example 33]	500 to 1000	< 100	100 to 500	–
5-(4-Amino-2-(trifluoromethyl)imidazo[1,2- f][1,2,4]triazin-7-yl)-2-chloro-N-(4- (hydroxymethyl)bicyclo[1.1.1]hexan-1- yl)benzenesulfonamide [Example 419]	> 1000	< 100	–	–
Cc1ccc(S(=O)(=O)NC23CCC(C(C)O)(CC2)OC3)cc1-c1cnc2c(N)ncnn12 (racemic) [Example 432, 3-(4-Aminoimidazo[1,2-f][1,2,4]triazin-7-yl)-N-(1-(1-hydroxyethyl)-2-oxabicyclo[2.2.2]octan-4-yl)-4-methylbenzenesulfonamide trifluoroacetate salt (racemic)]	–	< 100	100 to 500	100 to 500
Cc1ccc(S(=O)(=O)NC23CCC(C(O)C(F)(F)F)(CC2)OC3)cc1-c1cnc2c(N)ncnn12 (racemic) [Example 437, 3-(4-Aminoimidazo[1,2-f][1,2,4]triazin-7-yl)-4-methyl-N-(1-(2,2,2-trifluoro-1-hydroxyethyl)-2-oxabicyclo[2.2.2]octan-4-yl)benzenesulfonamide trifluoroacetate salt (racemic)]	–	< 100	100 to 500	100 to 500
COCCN1CCCC(NC(=O)c2cn3c(-c4cc(S(C)(=O)=O)ccc4C)cnc3c(N)n2)C1 (stereo not drawn) [Example 458, 8-Amino-N-(1-(2-methoxyethyl)piperidin-3-yl)-3-(2-methyl-5-(methylsulfonyl)phenyl)imidazo[1,2-a]pyrazine-6-carboxamide trifluoroacetate salt]	–	500 to 2000	> 2000	–
Cc1ccc(S(C)(=O)=O)cc1-c1cnc2c(N)nc(C(=O)NC3CCCN(CC#N)C3)cn12 (stereo not drawn) [Example 459, 8-Amino-N-(1-(cyanomethyl)piperidin-3-yl)-3-(2-methyl-5-(methylsulfonyl)phenyl)imidazo[1,2-a]pyrazine-6-carboxamide trifluoroacetate salt]	–	100 to 500	> 2000	–
COC(=O)N1CCCC(NC(=O)c2cn3c(-c4cc(S(C)(=O)=O)ccc4C)cnc3c(N)n2)C1 (stereo not drawn) [Example 461, Methyl 3-(8-amino-3-(2-methyl-5-(methylsulfonyl)phenyl)imidazo[1,2-a]pyrazine-6-carboxamido)piperidine-1-carboxylate trifluoroacetate salt]	–	100 to 500	500 to 2000	–
Cc1ccc(S(C)(=O)=O)cc1-c1cnc2c(N)nc(C(=O)NC3CCCN(S(C)(=O)=O)C3)cn12 (stereo not drawn) [Example 462, 8-Amino-3-(2-methyl-5-(methylsulfonyl)phenyl)-N-(1-(methylsulfonyl)piperidin-3-yl)imidazo[1,2-a]pyrazine-6-carboxamide trifluoroacetate salt]	–	< 100	500 to 2000	–
Cc1c(F)cc(S(=O)(=O)NCC(C)(C)O)cc1-c1cnc2c(N)nc(CO)nn12 [Example 470, 3-(4-Amino-2-(hydroxymethyl)imidazo[2,1-f][1,2,4]triazin-7-yl)-5-fluoro-N-(2-hydroxy-2-methylpropyl)-4-methylbenzenesulfonamide]	–	< 100	500 to 2000	–
Cc1cnccc1-c1cn2c(-c3cc(S(C)(=O)=O)ccc3C)cnc2c(N)n1 [Example 473, 3-(2-Methyl-5-(methylsulfonyl)phenyl)-6-(3-methylpyridin-4-yl)imidazo[1,2-a]pyrazin-8-amine trifluoroacetate]	–	< 100	500 to 2000	–
COc1cccc(F)c1-c1cn2c(-c3cc(S(C)(=O)=O)ccc3C)cnc2c(N)n1 [Example 478, 6-(2-Fluoro-6-methoxyphenyl)-3-(2-methyl-5-(methylsulfonyl)phenyl)imidazo[1,2-a]pyrazin-8-amine trifluoroacetate]	–	100 to 500	500 to 2000	–
Cc1ccc(S(C)(=O)=O)cc1-c1cnc2c(N)nc(-c3ccnn3C)cn12 [Example 479, 6-(1-Methyl-1H-pyrazol-5-yl)-3-(2-methyl-5-(methylsulfonyl)phenyl)imidazo[1,2-a]pyrazin-8-amine trifluoroacetate]	–	< 100	100 to 500	–
Cc1ccc(S(C)(=O)=O)cc1-c1cnc2c(N)nc(-c3ccc(C(=O)N(C)C)cc3F)cn12 [Example 480, 4-(8-Amino-3-(2-methyl-5-(methylsulfonyl)phenyl)imidazo[1,2-a]pyrazin-6-yl)-3-fluoro-N,N-dimethylbenzamide]	–	< 100	100 to 500	–
Cc1ccc(S(C)(=O)=O)cc1-c1cnc2c(N)nc(-c3ccc(CN4CCCC4)cc3F)cn12 [Example 487, 6-(2-Fluoro-4-(pyrrolidin-1-ylmethyl)phenyl)-3-(2-methyl-5-(methylsulfonyl)phenyl)imidazo[1,2-a]pyrazin-8-amine]	–	< 100	100 to 500	–
Cc1ccc(S(=O)(=O)C[C@H]2CC[C@@H](O)CC2)cc1-c1cnc2c(N)ncnn12 [Example 498, cis-4-(((3-(4-Aminoimidazo[2,1-f][1,2,4]triazin-7-yl)-4-methylphenyl)sulfonyl)methyl)cyclohexan-1-ol]	–	< 100	500 to 2000	–
Cc1ccc(S(=O)(=O)CC2CC2)cc1-c1cnc2c(N)ncnn12 [Example 499, 7-(5-((Cyclopropylmethyl)sulfonyl)-2-methylphenyl)imidazo[2,1-f][1,2,4]triazin-4-amine]	–	100 to 500	500 to 2000	–
COC[C@H]1CCCN1C(=O)C1CCCN(S(=O)(=O)c2ccc(C)c(-c3cnc4c(N)nc(C(F)(F)F)cn34)c2)C1 (stereo partly drawn) [Example 511, (1-((3-(8-Amino-6-(trifluoromethyl)imidazo[1,2-a]pyrazin-3-yl)-4-methylphenyl)sulfonyl)piperidin-3-yl)((R)-2-(methoxymethyl)pyrrolidin-1-yl)methanone]	–	500 to 2000	> 2000	–
Cc1ccc(S(=O)(=O)N2CCCC(CNC(=O)OC(C)(C)C)C2)cc1-c1cnc2c(N)nc(C(F)(F)F)cn12 (stereo not drawn) [Example 512, tert-Butyl ((1-((3-(8-amino-6-(trifluoromethyl)imidazo[1,2-a]pyrazin-3-yl)-4-methylphenyl)sulfonyl)piperidin-3-yl)methyl)carbamate]	–	< 100	> 2000	–
Cc1ccc(S(=O)(=O)N2CCCC(CNC(=O)CN(C)C)C2)cc1-c1cnc2c(N)nc(C(F)(F)F)cn12 (stereo not drawn) [Example 514, N-((1-((3-(8-Amino-6-(trifluoromethyl)imidazo[1,2-a]pyrazin-3-yl)-4-methylphenyl)sulfonyl)piperidin-3-yl)methyl)-2-(dimethylamino)acetamide]	–	100 to 500	500 to 2000	–
Cc1ccc(S(=O)(=O)N2CCCC(NC(=O)OC(C)(C)C)C2)cc1-c1cnc2c(N)nc(C(F)(F)F)cn12 (stereo not drawn) [Example 515, tert-Butyl (1-((3-(8-amino-6-(trifluoromethyl)imidazo[1,2-a]pyrazin-3-yl)-4-methylphenyl)sulfonyl)piperidin-3-yl)carbamate]	–	100 to 500	> 2000	–
Cc1ccc(S(=O)(=O)N2CCCC(NC(=O)C3CC3)C2)cc1-c1cnc2c(N)nc(C(F)(F)F)cn12 (stereo not drawn) [Example 517, N-(1-((3-(8-Amino-6-(trifluoromethyl)imidazo[1,2-a]pyrazin-3-yl)-4-methylphenyl)sulfonyl)piperidin-3-yl)cyclopropanecarboxamide trifluoroacetate]	–	< 100	500 to 2000	–
